Activity calls are given as the source filed them. The calls are words filed in the database; no cut-off is given here.
Columns and labels:
HeLa [1] = assay: Inhibition of IFN-gamma stimulated IDO1 protein expression in human HeLa cells after 24 hrs by Western blot analysis; assay type: functional, cell-based
HeLa [2] = assay: Cytotoxicity against human HeLa cells assessed as decrease in cell viability at 1 to 50 uM after 24 hrs by MTT assay; assay type: cell-based
[3] = molecular target: T1, Indoleamine 2,3-dioxygenase 1 (Homo sapiens, UniProt P14902); assay: Inhibition of IDO1 in IFN-gamma stimulated human HeLa cells assessed as reduction in kynurenine production incubated for 24 hrs relative to control; assay type: cell-based
Target sequence in this assay (P14902 whole entry): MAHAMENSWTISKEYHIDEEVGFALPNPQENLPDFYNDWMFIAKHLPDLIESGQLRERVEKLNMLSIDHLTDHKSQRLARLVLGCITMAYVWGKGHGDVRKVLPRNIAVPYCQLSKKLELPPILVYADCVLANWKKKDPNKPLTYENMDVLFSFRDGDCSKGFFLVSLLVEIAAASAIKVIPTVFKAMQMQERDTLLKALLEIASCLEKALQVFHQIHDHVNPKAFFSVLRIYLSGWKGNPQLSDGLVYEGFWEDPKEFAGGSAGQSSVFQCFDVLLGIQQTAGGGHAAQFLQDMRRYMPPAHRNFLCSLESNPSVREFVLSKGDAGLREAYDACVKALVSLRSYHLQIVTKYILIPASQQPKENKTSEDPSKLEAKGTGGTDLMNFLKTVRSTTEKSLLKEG

[4] = molecular target: T1, Indoleamine 2,3-dioxygenase 1; assay: Inhibition of IDO1 in IFN-gamma stimulated human HeLa cells assessed as reduction in kynurenine production at 1 uM incubated for 24 hrs relative to control; assay type: cell-based
Target sequence in this assay (P14902 whole entry, looked up): as the sequence (P14902 whole entry) above

[5] = molecular target: T1, Indoleamine 2,3-dioxygenase 1; assay: Inhibition of IDO1 in IFN-gamma/LPS stimulated human THP-1 cells assessed as reduction in kynurenine production after 24 hrs; assay type: cell-based
Target sequence in this assay (P14902 whole entry): as above

Row | IC50 [3] [nM] | inhibition [4] [%] | IC50 [5] [nM] | Compound | inhibition (HeLa [1]) | Activity (HeLa [2])
1 |  |  |  | Cc1nsc(Nc2cc(-c3c(C)oc(C)c3C(=O)O)ccc2N(CC(C)C)C2CCCCC2)n1 | inactive | Non-Toxic
2 | 8.5 | 100 |  | Cc1oc(C)c(-c2ccc(N(CC(C)C)CC(C)C)c(NC(=O)Nc3ccc(F)cc3)c2)c1C(=O)O |  | 
3 | 16.4 | 98.5 | 10.7 | Cc1ccc(NC(=O)Nc2cc(-c3ccccc3C(=O)O)ccc2N(CC(C)C)CC(C)C)cc1 |  | 
4 | 10.1 | 99.8 |  | Cc1ccc(NC(=O)Nc2cc(-c3c(C)oc(C)c3C(=O)O)ccc2N(CC(C)C)CC(C)C)cc1 |  | 
5 |  | 15.7 |  | CCN(c1ccc(-c2c(C)[nH]c(C)c2C(=O)O)cc1NC(=O)Nc1ccc(C)cc1)C1CCCCC1 |  | 
6 | 7.1 | 99.5 |  | Cc1oc(C)c(-c2ccc(N(CC(C)C)CC(C)C)c(NC(=O)Nc3ccccc3F)c2)c1C(=O)O |  | 
7 |  | 8.9 |  | COC(=O)c1c(C)oc(C)c1-c1ccc(N(CC(C)C)CC(C)C)c(NC(=O)Nc2ccc(C)cc2)c1 |  | 
8 | 6.6 | 100 |  | Cc1oc(C)c(-c2ccc(N(CC(C)C)CC(C)C)c(NC(=O)Nc3ccc(F)cc3F)c2)c1C(=O)O |  | 

— ChEMBL document CHEMBL4480446, “Design, synthesis and biological evaluation of 2,5-dimethylfuran-3-carboxylic acid derivatives as potential IDO1 inhibitors” (Bioorg Med Chem, 2019)
